Laboratory results reported in patent US10086028B2, “Method for treating vascular inflammation, improving skin beauty and improving male sexual function using ginseng berry” (AMOREPACIFIC CORPORATION, priority 2007, dated 2018).

Experiments:
Assay type in all cases: cell-based
[1] = test system: Macrophages (Raw 264.7 cells); experiment: Inhibition of LPS-induced NO generation in macrophages (Griess reaction); settings: LPS 1 μg/mL
Protocol: Effect of inhibiting LPS-induced NO generation in macrophages was tested in order to confirm the effect of inhibiting vascular inflammation of the ginseng berry extract.
Macrophages (Raw 264.7 cells) were cultured in a medium containing 10% serum under the condition of 5% CO2. After culturing on a 96-well plate incubator to a concentration of 2×10^5 cells/well and stimulating with LPS (1 μg/mL), the cells were treated with the ginseng berry extract of Example 1 (50 μg/mL and 100 μg/mL), the ginseng berry saponin concentrate of Example 2 (100 μg/mL), the ginseng root extract of Comparative Example 1 (100 μg/mL) or ginsenosides Rg1, Rg2, Rh1 or Re (10 μg/mL and 20 μg/mL), respectively. After keeping the treated cells at 37° C. for 1 hour, the degree of NO generation was measured to compare the effect of inhibiting LPS-induced NO generation of the test substances. NO generation (μM) was measured using the Griess reaction [Minghetti, L. et al., 1991, Glia 19. 152-160]. Measurement was made twice and the mean value was calculated.

[2] = test system: human HaCaT keratinocytes; experiment: Antioxidative effect: removal of UV-generated ROS in HaCaT keratinocytes; settings: ROS generated by UV in HaCaT; sample 10 μg/mL (Trolox given as (10))
Text: Antioxidative effect of the ginseng berry extract was investigated by comparing the ability of removing reactive oxygen species (ROS) generated in human HaCaT keratinocytes by ultraviolet (UV) radiation.

type I procollagen = experiment: Type I procollagen assay in human fibroblasts (ELISA); settings: 3rd day, sample 10 μg/mL
Protocol: Human fibroblasts were cultured on a 12-well plate incubator to a concentration of 10^5 cells/well. Then, the medium was replaced by one including the ginseng berry extract of Example 1 (1 μg/mL and 10 μg/mL), the ginseng berry saponin concentrate of Example 2 (10 μg/mL), the ginseng root extract of Comparative Example 1 (10 μg/mL) or ginsenosides Rg1, Rg2, Rh1 or Re (10 μg/mL). 10 ng/mL transforming growth factor β (TGF-β) was used as a positive control substance.
On the 3rd day of culturing, the cells were harvested and the quantity of produced type I procollagen was analyzed using ELISA. The result was calculated as a relative value with respect to the negative control group, which was not treated with a test substance.

Cyclooxygenase-2 (COX-2) = experiment: Inhibition of UV-induced COX-2 biosynthesis in human fibroblasts (western blotting); settings: UVA 15 J/cm^2, 2nd day, relative to UV control; sample 10 μg/mL
Protocol: Human fibroblasts were cultured on a 12-well plate incubator to a concentration of 10^5 cells/well. Then, after irradiating UVA at 15 J/cm^2, the medium was replaced by one including the ginseng berry extract of Example 1 (0.1 μg/mL, 1 μg/mL and 10 μg/mL), the ginseng berry saponin concentrate of Example 2 (10 μg/mL), the ginseng root extract of Comparative Example 1 (0.1 μg/mL, 1 μg/mL and 10 μg/mL) or ginsenosides Rg1, Rg2, Rh1 or Re (10 μg/mL). On the 2nd day of culturing, the cells were harvested and the quantity of produced COX-2 was analyzed using western blotting. The result was calculated as a relative value with respect to the control group, which was irradiated with UV without treating with a test substance, using a densitometer.

CC(C)=CCC[C@](C)(O)[C@H]1CC[C@]2(C)[C@@H]1[C@H](O)C[C@@H]1[C@@]3(C)CC[C@H](O)C(C)(C)[C@@H]3[C@@H](O[C@@H]3O[C@H](CO)[C@@H](O)[C@H](O)[C@H]3O[C@@H]3O[C@@H](C)[C@H](O)[C@@H](O)[C@H]3O)C[C@]12C [Rg2]
NO generation relative to negative control (%) ([1]; sample 10 μg/mL): 100.3% | NO generation, Mean ± standard deviation ([1]; sample 10 μg/mL): 16.68 ± 0.45 µM | NO generation, Result 1 ([1]; sample 10 μg/mL): 17.00 µM | NO generation, Result 2 ([1]; sample 10 μg/mL): 16.36 µM | NO generation relative to negative control (%) ([1]; sample 20 μg/mL): 97.4% | NO generation, Mean ± standard deviation ([1]; sample 20 μg/mL): 16.19 ± 0.01 µM | NO generation, Result 1 ([1]; sample 20 μg/mL): 16.18 µM | NO generation, Result 2 ([1]; sample 20 μg/mL): 16.19 µM | Antioxidative effect (%) [2]: 1% | Procollagen activity relative to negative control (%) (type I procollagen): 110% | COX-2 biosynthesis (%) (Cyclooxygenase-2 (COX-2)): 97%

CC(C)=CCC[C@](C)(O)[C@H]1CC[C@]2(C)[C@@H]1[C@H](O)C[C@@H]1[C@@]3(C)CC[C@H](O)C(C)(C)[C@@H]3[C@@H](O[C@@H]3O[C@H](CO)[C@@H](O)[C@H](O)[C@H]3O)C[C@]12C [Rh1]
NO generation relative to negative control (%) ([1]; sample 10 μg/mL): 89.4% | NO generation, Mean ± standard deviation ([1]; sample 10 μg/mL): 14.86 ± 0.07 µM | NO generation, Result 1 ([1]; sample 10 μg/mL): 14.92 µM | NO generation, Result 2 ([1]; sample 10 μg/mL): 14.81 µM | NO generation relative to negative control (%) ([1]; sample 20 μg/mL): 75.1% | NO generation, Mean ± standard deviation ([1]; sample 20 μg/mL): 12.48 ± 0.26 µM | NO generation, Result 1 ([1]; sample 20 μg/mL): 12.29 µM | NO generation, Result 2 ([1]; sample 20 μg/mL): 12.66 µM | Antioxidative effect (%) [2]: 3% | Procollagen activity relative to negative control (%) (type I procollagen): 105% | COX-2 biosynthesis (%) (Cyclooxygenase-2 (COX-2)): 99%

CC(C)=CCC[C@](C)(O[C@@H]1O[C@H](CO)[C@@H](O)[C@H](O)[C@H]1O)[C@H]1CC[C@]2(C)[C@@H]1[C@H](O)C[C@@H]1[C@@]3(C)CC[C@H](O)C(C)(C)[C@@H]3[C@@H](O[C@@H]3O[C@H](CO)[C@@H](O)[C@H](O)[C@H]3O)C[C@]12C [Rg1]
NO generation relative to negative control (%) ([1]; sample 10 μg/mL): 101.2% | NO generation, Mean ± standard deviation ([1]; sample 10 μg/mL): 16.83 ± 0.63 µM | NO generation, Result 1 ([1]; sample 10 μg/mL): 16.38 µM | NO generation, Result 2 ([1]; sample 10 μg/mL): 17.27 µM | NO generation relative to negative control (%) ([1]; sample 20 μg/mL): 99.3% | NO generation, Mean ± standard deviation ([1]; sample 20 μg/mL): 16.50 ± 1.06 µM | NO generation, Result 1 ([1]; sample 20 μg/mL): 15.75 µM | NO generation, Result 2 ([1]; sample 20 μg/mL): 17.25 µM | Antioxidative effect (%) [2]: 2% | Procollagen activity relative to negative control (%) (type I procollagen): 105% | COX-2 biosynthesis (%) (Cyclooxygenase-2 (COX-2)): 95%
